{"source": "ChEMBL document CHEMBL3045623", "about": "“Pyrazole derivatives as photosynthetic electron transport inhibitors: new leads and structure-activity relationship” (J Agric Food Chem, 2005)"}
{"target": "Photosystem II protein D1 (Spinacia oleracea, UniProt P69560)", "experiment": "(§1) Inhibition of photosynthetic electron transport at the PSII level in intact chloroplasts from Spinacia oleracea (spinach) leaves assessed as inhibition of in vitro activity by Hill reaction assay", "conditions": "not given"}
{"molecule": "Cc1c(C(=O)O)c(C(=O)NC(C)(C)C)nn1C(C)(C)C", "pIC50": "< 1"}
{"molecule": "Cc1[nH]nc(C(=O)NC2CC2)c1C(=O)O", "pIC50": "< 1"}
{"target": "Photosystem II protein D1 (Spinacia oleracea, UniProt P69560)", "experiment": "as §1", "conditions": "read-out: IC50", "units": {"IC50": "µM"}}
{"molecule": "CCCCNc1nc2[nH]ncc2c(=S)s1", "IC50": 2.67}
{"molecule": "Cc1c(C(=O)O)c(C(=O)NC(C)(C)C)nn1-c1c(Cl)cc(C(F)(F)F)cc1Cl", "IC50": 1040}
{"molecule": "O=c1sc(Nc2ccc(Br)cc2)nc2[nH]ncc12", "IC50": 28.5}
{"molecule": "S=c1sc(Nc2ccc(Br)cc2)nc2[nH]ncc12", "IC50": 6.06}
{"molecule": "FC(F)(F)c1cccc(Nc2nc3[nH]ncc3c(=S)s2)c1", "IC50": 2.78}
{"molecule": "Cc1c(C(=O)O)c(C(=O)NC2CC2)nn1-c1ccc(Cl)cc1", "IC50": 370}
{"molecule": "Cc1c(C(=O)O)c(C(=O)NC(C)(C)C)nn1-c1ccccc1", "IC50": 7600}
{"molecule": "S=c1sc(NCc2ccccc2)nc2[nH]ncc12", "IC50": 2.84}
{"molecule": "Cc1c(C(=O)O)c(C(=O)NC(C)(C)C)nn1C", "IC50": 670}
{"molecule": "O=c1sc(NCc2ccccc2)nc2[nH]ncc12", "IC50": 10.8}
{"molecule": "S=c1sc(Nc2ccccc2Cl)nc2[nH]ncc12", "IC50": 43.1}
{"molecule": "Cc1c(C(=O)O)c(C(=O)NC2CC2)nn1C", "IC50": 1190}
{"molecule": "Cc1onc(C(=O)NC2CC2)c1C(=O)O", "IC50": 100}
{"molecule": "O=c1sc(Nc2ccccc2Cl)nc2[nH]ncc12", "IC50": 47.8}
{"molecule": "O=c1sc(Nc2ccc(Cl)cc2)nc2[nH]ncc12", "IC50": 38.5}
{"molecule": "S=c1sc(Nc2cccc(Cl)c2)nc2[nH]ncc12", "IC50": 15.3}
{"molecule": "Cc1c(C(=O)O)c(C(=O)NC2CC2)nn1C(C)(C)C", "IC50": 68000}
{"molecule": "CCNc1nc2[nH]ncc2c(=O)s1", "IC50": 335}
{"molecule": "S=c1sc(Nc2ccc(Cl)cc2)nc2[nH]ncc12", "IC50": 21.3}
{"molecule": "CCCCNc1nc2[nH]ncc2c(=O)s1", "IC50": 211}
{"molecule": "S=c1sc(NC2CCCCC2)nc2[nH]ncc12", "IC50": 0.64}
{"molecule": "O=c1sc(Nc2cccc(C(F)(F)F)c2)nc2[nH]ncc12", "IC50": 33.2}
{"molecule": "Cc1c(C(=O)O)c(C(=O)NC(C)(C)C)nn1C(C)(C)C", "IC50": "> 100000"}
{"molecule": "Cc1c(C(=O)O)c(C(=O)NC(C)(C)C)nn1-c1ccc(Cl)cc1", "IC50": 950}
{"molecule": "O=c1sc(NC2CCCCC2)nc2[nH]ncc12", "IC50": 66.5}
{"molecule": "O=c1sc(Nc2ccc([N+](=O)[O-])cc2)nc2[nH]ncc12", "IC50": 1060}
{"molecule": "Cc1onc(C(=O)NC(C)(C)C)c1C(=O)O", "IC50": 290}
{"molecule": "Cc1c(C(=O)O)c(C(=O)NC2CC2)nn1-c1ccccc1", "IC50": 22500}
{"molecule": "Cc1[nH]nc(C(=O)NC2CC2)c1C(=O)O", "IC50": "> 100000"}
{"molecule": "Cc1c(C(=O)O)c(C(=O)NC2CC2)nn1-c1c(Cl)cc(C(F)(F)F)cc1Cl", "IC50": 12200}
{"molecule": "CCNc1nc2[nH]ncc2c(=S)s1", "IC50": 10.7}
{"molecule": "O=c1sc(Nc2cccc(Cl)c2)nc2[nH]ncc12", "IC50": 48}
{"target": "Photosystem II protein D1 (Spinacia oleracea, UniProt P69560)", "experiment": "as §1", "conditions": "read-out: pIC50 (converted)", "units": {"IC50": "µM"}}
{"molecule": "Cc1cc2[nH]c(=O)s/c(=N/C3CCCCC3)n2n1", "IC50": 0.21}
{"molecule": "CCn1c(=O)[nH]c2cc(C)nn2c1=O", "IC50": 32}
{"molecule": "CN(C)c1nc(=O)n(C2CCCCC2)c(=O)n1C", "note": "[HEXAZINONE]", "IC50": 0.11}
{"molecule": "Cc1cc2[nH]c(=O)n(Cc3ccccc3)c(=O)n2n1", "IC50": 42}
{"molecule": "CC/N=c1/sc(=O)[nH]c2cc(C)nn12", "IC50": 2.9}
{"molecule": "Cc1cc2[nH]c(=O)n(-c3ccccc3)c(=O)n2n1", "IC50": 169}
{"molecule": "Cc1cc2[nH]c(=O)s/c(=N/Cc3ccccc3)n2n1", "IC50": 18}
{"molecule": "CN(C)C(=O)Nc1ccc(Cl)c(Cl)c1", "note": "[DCMU]", "IC50": 0.27}
{"molecule": "CCCCn1c(=O)[nH]c2cc(C)nn2c1=O", "IC50": 6.61}
{"molecule": "Cc1cc2[nH]c(=O)n(C3CCCCC3)c(=O)n2n1", "IC50": 0.32}
{"molecule": "CCCC/N=c1/sc(=O)[nH]c2cc(C)nn12", "IC50": 0.57}
{"molecule": "CCC(C)n1c(=O)[nH]c2cc(C)nn2c1=O", "note": "(configuration not stated)", "IC50": 2.6}
{"molecule": "O=c1[nH]c2c(c(=O)n1C1CCCCC1)CCC2", "note": "[LENACIL]", "IC50": 0.08}
